Experimental findings from the NIST ThermoML archive (doi:10.1016/j.jct.2004.12.006) are described below.

The conditions of series [1]: Crystal; DTA.
A short description of series [2]: Molar enthalpy of transition or fusion. As to conditions: Crystal; DSC.

Numbers after ± are expanded uncertainties.

For the compound `Cl.Cl.Fc1ccc([C@@H]2CCNC[C@H]2COc2ccc3c(c2)OCO3)cc1.Fc1ccc([C@@H]2CCNC[C@H]2COc2ccc3c(c2)OCO3)cc1.O` [paroxetine hydrochloride hemihydrate], in series [1], the Normal melting temperature was 126.7 ± 0.7 °C. Further, in series [2], the “Molar enthalpy of transition or fusion” value came to 8.12 ± 0.167 kcal/mol.
